According to US8822509B2, “Pain-relieving compositions and uses therefor” (priority 2006, dated 2014):
“Also recorded” adds a separate entry of the source.

Experiments:
[1] = system: systolic blood pressure of normotensive non-diabetic Wistar rats; assay: Systolic blood pressure (tail cuff) in normotensive rats; format: in vivo
Method: Sedation was induced by the intraperitoneal administration of Zoletil® (tiletamine 15 mg kg^−1 and zolazepam 15 mg kg^−1). Using a tail pulse transducer (MLT1010) and an inflatable tail cuff with a Capto SP844 physiological pressure transducer (MLT844/D), systolic blood pressure was recorded via a PowerLab data acquisition unit (ADInstruments, Sydney, Australia). Tails were warmed with lukewarm water prior to each blood pressure reading to increase peripheral circulation so as to facilitate blood pressure recordings using the tail cuff method.
This study was designed to assess the effects of single s.c. bolus doses of the furoxan NO donor, Compound 1, relative to vehicle (DMSO:water, 90:10) on systolic blood pressure in normotensive, non-diabetic, adult male Wistar rats. Single bolus doses of Compound 1 were administered by s.c. injection into the back of the neck of adult male normotensive, non-diabetic Wistar rats in the dose range, 80 fmol/kg to 80 lμmol/kg. Specifically, the doses of Compound 1 tested were 80 fmol/kg (n=3), 800 pmol/kg (n=8), 8 nmol/kg (n=6), 800 nmol/kg (n=4), 8 μmol/kg (n=4), 80 μmol/kg (n=3).

[2] = system: non-diabetic control rats; assay: Tolerance development (7-day continuous s.c. infusion, 2-day washout) in non-diabetic control rats, von Frey PWT; format: in vivo
STZ-diabetic rats = assay: Behavioural side-effects in STZ-diabetic rats; format: in vivo; conditions: Compound 1 800 pmol/kg s.c.; morphine 21 μmol/kg
[3] = system: tactile (mechanical) allodynia in hindpaws of STZ-diabetic rats; assay: Anti-allodynia by von Frey paw withdrawal thresholds (PWT) in STZ-diabetic rats; format: in vivo, Wistar rats
Method: Following this, the jugular cannula was withdrawn, the vein tied off, and the incision sutured. Following surgery, rats received antibiotic prophylaxis in the form of topical dusting powder over the sutured incisions, as well as a subcutaneous injection of benzylpenicillin (60 mg). Rats were placed in individual cages, kept warm and monitored closely during the surgical recovery period. Rats were classified as diabetic if on day 10 post-STZ administration, their daily water intake was ≧100 mL and their corresponding blood glucose levels (BGLs) were ≧15 mM.
Calibrated von Frey filaments were used to document the time course for the development and maintenance of tactile allodynia (defining symptom of PDN).
Briefly, baseline PWTs were determined for both hindpaws prior to each antinociceptive testing session in the non-diabetic control group at week 0 as well as in groups of STZ-diabetic rats at 10, 14 and 24 wks.
The PWT vs time data were normalized by subtracting the pre-dosing baseline PWT values for each individual rat to obtain ΔPWT values as follows: Normalized (Δ)PWT value=Post-treatment PWT value−PWT value prior to treatment.
ΔPWT versus time curves were then constructed. Trapezoidal integration was used to estimate ΔPWT AUC values for individual rats in the non-diabetic and STZ-diabetic rat treatment groups. ΔPWT AUC versus dose curves were constructed and GraphPad™ Prism was used to estimate the ˜ED50 values.

[4] = molecular target: T1, μ-opioid receptors (MOP receptors) (Mus musculus, UniProt P42866); format: cell-based
T1 construct: expressed in transfected cells; host or cells: HEK293

[5] = molecular target: T1, μ-opioid receptors (MOP receptors); format: cell-based; conditions: 2% βCD 1 h 37° C.; reversed by βCD-cholesterol complexes
Method: Briefly, HEK-MOP cells were pre-incubated with 2% (2-hydroxypropyl)-β-cyclodextrin (βCD) for 1 h at 37° C. to deplete cholesterol from caveloae in the cell membrane. Cells were washed with DMEM and then utilized in the forskolin-stimulated cAMP assay as described above. […] Cells were washed with DMEM and then utilized in the forskolin-stimulated cAMP assay as described above.

[6] = system: non-transfected HEK293 cells; assay: Forskolin-stimulated cAMP responses in non-transfected HEK293 cells; conditions: non-transfected HEK293, entire concentration range tested
Method: (§1) Non-transfected HEK293 cells were used as a control. Transfected HEK293 cells were maintained in Dulbecco's Modified Eagle's Medium (DMEM) supplemented with 10% fetal bovine serum (FBS) and geneticin (1 mg/mL). Non-transfected HEK293 cells were maintained in DMEM supplemented with 10% FBS.
(§2) The functional interaction between opioids and opioid-like compounds and specific opioid G-protein-coupled receptors (GPCRs) was assessed by measuring changes in intracellular cAMP levels relative to basal levels. The Alphascreen cAMP functional assay measures agonist and antagonist activity of GPCRs by stimulating cells to either increase or decrease intracellular cAMP levels. The assay was performed using an Alphascreen cAMP kit according to the manufacturer's instructions. […]
(§3) Detection of cAMP is based on the competition between intracellular cAMP and biotinylated cAMP linked streptavidin-coated donor beads for anti-cAMP conjugated acceptor beads. When the donor and acceptor beads are in close proximity visible light emitted at 520-620 nm is detected using the Envision multilabel plate reader. […]
(§4) The assay performance was optimized by using cells at low passage number and at 70-90% confluence. […] The cell concentration was determined using a haemocytometer. […] Note that the cell number will influence the cAMP levels measured before (basal) and after adenylyl cyclase activation. […]

[7] = molecular target: κ-opioid receptors (KOP receptors) (Mus musculus, UniProt P33534); assay: Forskolin-stimulated cAMP responses in KOP-transfected HEK293 cells; conditions: KOP-transfected HEK293, entire concentration range tested
Method: as §1, §2, §3, §4

[8] = system: cGMP formation in HEK-MOP cells; assay: cGMP levels in MOP-transfected HEK cells (AlphaScreen); format: cell-based
Method: For assessment of cGMP levels in MOP-transfected HEK cells, the methods used were similar to those described in Example 6 with the exception that forskolin was omitted from the incubations. cGMP levels were quantified using AlphaScreen detection kits according to the manufacturer's instructions. Briefly, 5 μL aliquots of the cell suspension were added to individual wells containing 5 μL aliquots of test or control article solutions at the concentration of interest in triplicates in 384-well plates and incubated for 30 min at 37° C. cGMP standard solutions were serially diluted in stimulation buffer to give concentrations in the range of 5×10^−10-5×10^−6 M and were added at 10 μL/well. After cells were lysed with lysis buffer, 5 μL aliquots of acceptor bead mix (10 μl/mL of acceptor beads and 1/3000 anti-cGMP antibody for cGMP detection in lysis buffer) were added to each well. After plates were incubated in the dark at room temperature for 60 min, 5 μL aliquots of donor bead mix (10 μL/mL of donor beads and 0.3 nM biotinylated cGMP in lysis buffer) were added per well and plates were incubated for 16 h in the dark at room temperature. […] was measured using an Envision Multilabel Plate Reader (PerkinElmer Life Sciences).

[9] = system: tactile allodynia in 14-18 week STZ-diabetic rats; assay: Naloxone or ODQ pre-treatment before test article in 14-18 week STZ-diabetic rats, von Frey PWT; format: in vivo, Wistar rats
[10] = molecular target: δ-opioid receptors (DOP receptors) (Mus musculus, UniProt P32300); assay: Forskolin-stimulated cAMP responses in DOP-transfected HEK293 cells; conditions: DOP-transfected HEK293, entire concentration range tested
Method: as §1, §2, §3, §4

[11] = drug-naïve non-diabetic rats, first s.c. bolus
[12] = non-diabetic rats, second s.c. bolus after 7-day infusion and 2-day washout
[13] = non-diabetic rats, second s.c. bolus after washout
[14] = 10 wks post-STZ, Compound 1 s.c. (FIG. 3B)
[15] = 14 and 24 wks post-STZ, Compound 1 80 and 800 pmol/kg s.c.

T1 sequence (P42866 whole entry): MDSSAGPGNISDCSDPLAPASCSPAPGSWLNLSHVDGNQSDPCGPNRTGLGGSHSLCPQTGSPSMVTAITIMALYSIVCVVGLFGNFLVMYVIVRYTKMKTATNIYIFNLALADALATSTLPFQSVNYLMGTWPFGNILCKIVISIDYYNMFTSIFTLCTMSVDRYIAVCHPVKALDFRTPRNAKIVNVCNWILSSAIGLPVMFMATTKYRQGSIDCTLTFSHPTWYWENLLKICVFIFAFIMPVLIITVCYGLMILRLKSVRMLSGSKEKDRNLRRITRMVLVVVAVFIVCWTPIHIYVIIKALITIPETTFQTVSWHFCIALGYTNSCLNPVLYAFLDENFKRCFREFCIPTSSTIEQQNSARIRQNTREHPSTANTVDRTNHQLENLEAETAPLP
Chain of κ-opioid receptors (KOP receptors) (P33534 whole entry): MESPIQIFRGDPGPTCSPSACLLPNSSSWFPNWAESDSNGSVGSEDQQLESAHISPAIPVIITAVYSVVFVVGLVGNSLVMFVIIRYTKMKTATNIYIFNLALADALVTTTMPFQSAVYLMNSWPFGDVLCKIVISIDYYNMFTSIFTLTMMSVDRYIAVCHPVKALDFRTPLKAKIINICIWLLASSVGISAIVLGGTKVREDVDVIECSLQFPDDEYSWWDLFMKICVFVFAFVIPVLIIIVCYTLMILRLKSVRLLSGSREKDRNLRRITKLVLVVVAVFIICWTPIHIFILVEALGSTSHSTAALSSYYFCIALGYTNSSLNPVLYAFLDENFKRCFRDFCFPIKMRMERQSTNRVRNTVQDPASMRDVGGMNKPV
Chain of δ-opioid receptors (DOP receptors) (P32300 whole entry): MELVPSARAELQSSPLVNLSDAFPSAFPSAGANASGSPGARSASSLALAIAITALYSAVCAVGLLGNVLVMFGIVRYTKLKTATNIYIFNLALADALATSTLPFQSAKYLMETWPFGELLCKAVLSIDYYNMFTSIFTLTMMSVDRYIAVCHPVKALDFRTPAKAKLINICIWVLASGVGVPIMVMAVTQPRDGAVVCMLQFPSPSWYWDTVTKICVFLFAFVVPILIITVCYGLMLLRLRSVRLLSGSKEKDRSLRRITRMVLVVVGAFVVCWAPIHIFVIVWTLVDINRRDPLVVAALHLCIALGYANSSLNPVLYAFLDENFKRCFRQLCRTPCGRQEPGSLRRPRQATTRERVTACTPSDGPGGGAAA

## Cc1c(C=O)no[n+]1[O-] [Compound 1, 4-formyl-3-methyl-1,2,5-oxadiazole-2-oxide]
[1]; 80 μmol/kg s.c., 30 min post-dosing vs pre-dosing baseline
  effect on systolic blood pressure: decreased significantly; also recorded: significantly reduced systolic blood pressure
[1]; 80 μmol/kg s.c., 30 min post-dosing, pre-dose 111.3 (±1.5)
  mean (±SEM) systolic blood pressure at time of peak effect: 79.8 (±0.5) mm Hg
[1]; 80 μmol/kg s.c., 1 h post-dosing
  mean systolic blood pressure: 112.6±0.4 mm Hg
[1]; single s.c. bolus 80 fmol/kg to 8 μmol/kg, up to 1 h
  effect on systolic blood pressure: no significant effects
[2]; [11]
  mean duration of action: ~3 h
  time of peak antinociception post-dosing: 1 h
[2]; drug-naïve non-diabetic rats, Compound 1 8 fmol/kg, morphine 2.8 mmol/kg (so in the source) s.c. bolus
  mean (±SEM) peak PWT: 15.9 ± 0.3 g
[2]; non-diabetic rats
  tolerance after 7-day continuous s.c. infusion: completely tolerant
[2]; non-diabetic rats, after 2-day washout
  antinociception after second bolus, naïve vs "tolerant" rats: did not differ significantly
[2]; [12]
  mean (±SEM) peak PWT: 15.6 (±0.7) g
  mean (±SEM) peak ΔPWT: 4.2 (±0.6) g
[2]; [13]
  mean duration of action: ~3 h
  time of peak antinociception post-dosing: 1 h
STZ-diabetic rats
  behavioural side-effects at highest dose: no discernable side-effects
[3]; 10 wks post-STZ, Compound 1 8 fmol/kg s.c.
  relief of mechanical allodynia at time of peak effect: complete relief of mechanical allodynia
[3]; [14]
  mean duration of action: > 3 h
  peak anti-allodynic response (PWT): 10.6 ± 0.5 g
  time of peak anti-allodynic response post-dosing: ~75 min
[3]; [15]
  alleviation of mechanical allodynia at time of peak response: fully alleviated
  duration of action: ≥ 3 h
[3]; 14 weeks post-STZ, Compound 1 fmol/kg doses
  anti-allodynic effect of doses used at week 10: no longer effective
[3]; single s.c. bolus at 10, 14, 24 wks post-STZ
  anti-allodynia in the hindpaws of STZ-diabetic rats: dose-dependent anti-allodynia/antinociception
[4]
  effect of naloxone pre-incubation on inhibition of forskolin-stimulated cAMP formation: not by naloxone
[4]; MOP-transfected HEK293, mM, pM and aM concentrations
  inhibition of forskolin-stimulated cAMP formation: inhibited forskolin-stimulated cAMP formation
[4]; ODQ 10 μM
  effect of ODQ pre-incubation on modulation of forskolin-stimulated cAMP formation: did not significantly attenuate
[4]; PTX 100 ng/mL 16 h, Compound 1 1 aM, morphine 1 μM
  effect of pertussis toxin pre-incubation on inhibition of forskolin-stimulated cAMP formation: abolished by pre-incubation with pertussis toxin
[5]
  effect of lipid raft/caveolae depletion on cAMP effects: inhibited the effects of Compound 1; also recorded: sensitive to removal of lipid rafts/caveolae
[6]
  inhibition of forskolin-stimulated cAMP formation: did not appear to inhibit
[7]
  inhibition of forskolin-stimulated cAMP formation: did not appear to inhibit
[8]; Compound 1, 1 mM
  cGMP Activity (% of basal cGMP response): 159 + 20%
[8]; Compound 1, 1 mM + L-Cysteine 5 mM
  cGMP Activity (% of basal cGMP response): 185 + 34%
[8]; Compound 1, 1 mM + L-Cysteine 5 mM vs alone
  fold increase in cGMP activity with L-cysteine: (1.2 fold increase)
[8]; HEK-MOP cells, presence and absence of L-cysteine (5 mM)
  stimulation of cGMP formation: comparatively weak stimulation of cGMP formation
[9]; ODQ 53.4 μmol/kg s.c. 60 min before Compound 1 800 pmol/kg s.c.
  effect of ODQ pre-treatment on anti-allodynia: significantly attenuated from 45 minutes onwards; also recorded: partially sensitive
[9]; naloxone 1.25 μmol/kg s.c. 10 min before Compound 1 800 pmol/kg or morphine 7 μmol/kg s.c.
  effect of naloxone pre-treatment on anti-allodynia (ΔPWT AUC): did not significantly attenuate; also recorded: naloxone insensitive
[10]
  inhibition of forskolin-stimulated cAMP formation: did not appear to inhibit
